Results taken from paper PMC4956396 (Molecular Pain, 2016).

Columns and labels:
Cav3.1 = Cav3.1 (Homo sapiens, UniProt O43497); test: whole-cell patch clamp, transiently transfected tsA-201 cells, % inhibition at […]; type: cell-based; conditions: tsA201, read-out: % inhibition at 10 μM
Cav3.3 = Cav3.3 (Homo sapiens, UniProt Q9P0X4); test: as above; type: cell-based; conditions: tsA201, read-out: % inhibition at 10 μM
Chain of Cav3.3 (Q9P0X4 whole entry): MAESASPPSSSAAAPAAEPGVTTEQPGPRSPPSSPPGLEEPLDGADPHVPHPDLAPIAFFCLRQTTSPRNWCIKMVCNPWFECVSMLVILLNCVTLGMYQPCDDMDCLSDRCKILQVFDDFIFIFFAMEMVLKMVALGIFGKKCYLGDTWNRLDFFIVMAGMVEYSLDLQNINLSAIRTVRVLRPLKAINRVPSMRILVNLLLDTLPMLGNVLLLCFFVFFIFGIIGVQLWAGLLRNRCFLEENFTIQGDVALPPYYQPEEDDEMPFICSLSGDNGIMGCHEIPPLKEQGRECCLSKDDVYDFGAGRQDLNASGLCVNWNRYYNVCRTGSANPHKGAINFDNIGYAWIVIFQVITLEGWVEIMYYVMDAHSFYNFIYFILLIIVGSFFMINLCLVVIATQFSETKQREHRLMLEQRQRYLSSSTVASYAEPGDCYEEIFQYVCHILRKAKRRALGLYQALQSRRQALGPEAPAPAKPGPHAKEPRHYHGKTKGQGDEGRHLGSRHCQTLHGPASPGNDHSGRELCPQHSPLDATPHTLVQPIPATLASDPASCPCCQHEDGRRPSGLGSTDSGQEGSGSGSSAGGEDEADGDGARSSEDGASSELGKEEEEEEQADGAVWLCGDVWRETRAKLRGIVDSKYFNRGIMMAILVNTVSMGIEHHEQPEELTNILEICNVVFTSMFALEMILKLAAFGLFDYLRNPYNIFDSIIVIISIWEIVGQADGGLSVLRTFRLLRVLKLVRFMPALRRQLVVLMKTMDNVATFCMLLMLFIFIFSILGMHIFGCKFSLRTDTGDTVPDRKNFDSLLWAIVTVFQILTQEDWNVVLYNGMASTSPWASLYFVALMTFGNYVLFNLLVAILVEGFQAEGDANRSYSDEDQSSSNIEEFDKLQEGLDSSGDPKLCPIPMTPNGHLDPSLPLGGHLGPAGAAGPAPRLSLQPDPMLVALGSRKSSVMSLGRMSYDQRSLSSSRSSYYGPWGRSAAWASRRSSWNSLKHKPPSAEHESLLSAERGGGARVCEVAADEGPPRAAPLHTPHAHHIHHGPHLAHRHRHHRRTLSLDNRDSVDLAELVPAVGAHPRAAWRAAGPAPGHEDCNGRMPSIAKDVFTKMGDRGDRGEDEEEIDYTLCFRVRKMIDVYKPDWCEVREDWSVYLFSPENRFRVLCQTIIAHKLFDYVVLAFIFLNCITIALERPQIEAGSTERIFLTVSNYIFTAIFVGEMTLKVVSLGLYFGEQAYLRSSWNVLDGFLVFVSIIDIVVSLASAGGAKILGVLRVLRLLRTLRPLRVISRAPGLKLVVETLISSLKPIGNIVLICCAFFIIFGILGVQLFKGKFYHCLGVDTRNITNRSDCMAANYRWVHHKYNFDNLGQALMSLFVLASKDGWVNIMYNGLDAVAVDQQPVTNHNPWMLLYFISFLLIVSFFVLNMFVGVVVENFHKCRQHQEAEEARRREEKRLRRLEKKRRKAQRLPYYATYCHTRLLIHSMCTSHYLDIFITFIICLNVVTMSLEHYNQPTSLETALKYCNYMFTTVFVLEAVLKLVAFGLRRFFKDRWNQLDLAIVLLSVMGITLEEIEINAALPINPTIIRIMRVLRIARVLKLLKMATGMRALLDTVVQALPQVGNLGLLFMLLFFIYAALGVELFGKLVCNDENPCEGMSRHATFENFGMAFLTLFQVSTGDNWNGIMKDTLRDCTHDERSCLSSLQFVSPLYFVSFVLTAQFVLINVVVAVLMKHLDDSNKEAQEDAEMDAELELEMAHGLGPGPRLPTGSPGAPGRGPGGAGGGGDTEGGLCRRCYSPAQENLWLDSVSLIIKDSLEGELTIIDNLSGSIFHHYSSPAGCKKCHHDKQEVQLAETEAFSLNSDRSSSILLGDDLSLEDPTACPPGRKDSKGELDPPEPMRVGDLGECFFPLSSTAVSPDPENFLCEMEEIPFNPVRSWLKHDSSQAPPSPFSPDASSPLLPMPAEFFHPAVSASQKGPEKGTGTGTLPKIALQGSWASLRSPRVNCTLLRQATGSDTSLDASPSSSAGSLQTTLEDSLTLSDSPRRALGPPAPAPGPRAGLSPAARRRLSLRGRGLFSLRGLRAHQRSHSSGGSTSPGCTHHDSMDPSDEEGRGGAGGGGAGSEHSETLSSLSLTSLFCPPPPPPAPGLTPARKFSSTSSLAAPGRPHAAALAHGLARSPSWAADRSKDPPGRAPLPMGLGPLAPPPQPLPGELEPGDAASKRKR

Chain of Cav3.1 (O43497 whole entry): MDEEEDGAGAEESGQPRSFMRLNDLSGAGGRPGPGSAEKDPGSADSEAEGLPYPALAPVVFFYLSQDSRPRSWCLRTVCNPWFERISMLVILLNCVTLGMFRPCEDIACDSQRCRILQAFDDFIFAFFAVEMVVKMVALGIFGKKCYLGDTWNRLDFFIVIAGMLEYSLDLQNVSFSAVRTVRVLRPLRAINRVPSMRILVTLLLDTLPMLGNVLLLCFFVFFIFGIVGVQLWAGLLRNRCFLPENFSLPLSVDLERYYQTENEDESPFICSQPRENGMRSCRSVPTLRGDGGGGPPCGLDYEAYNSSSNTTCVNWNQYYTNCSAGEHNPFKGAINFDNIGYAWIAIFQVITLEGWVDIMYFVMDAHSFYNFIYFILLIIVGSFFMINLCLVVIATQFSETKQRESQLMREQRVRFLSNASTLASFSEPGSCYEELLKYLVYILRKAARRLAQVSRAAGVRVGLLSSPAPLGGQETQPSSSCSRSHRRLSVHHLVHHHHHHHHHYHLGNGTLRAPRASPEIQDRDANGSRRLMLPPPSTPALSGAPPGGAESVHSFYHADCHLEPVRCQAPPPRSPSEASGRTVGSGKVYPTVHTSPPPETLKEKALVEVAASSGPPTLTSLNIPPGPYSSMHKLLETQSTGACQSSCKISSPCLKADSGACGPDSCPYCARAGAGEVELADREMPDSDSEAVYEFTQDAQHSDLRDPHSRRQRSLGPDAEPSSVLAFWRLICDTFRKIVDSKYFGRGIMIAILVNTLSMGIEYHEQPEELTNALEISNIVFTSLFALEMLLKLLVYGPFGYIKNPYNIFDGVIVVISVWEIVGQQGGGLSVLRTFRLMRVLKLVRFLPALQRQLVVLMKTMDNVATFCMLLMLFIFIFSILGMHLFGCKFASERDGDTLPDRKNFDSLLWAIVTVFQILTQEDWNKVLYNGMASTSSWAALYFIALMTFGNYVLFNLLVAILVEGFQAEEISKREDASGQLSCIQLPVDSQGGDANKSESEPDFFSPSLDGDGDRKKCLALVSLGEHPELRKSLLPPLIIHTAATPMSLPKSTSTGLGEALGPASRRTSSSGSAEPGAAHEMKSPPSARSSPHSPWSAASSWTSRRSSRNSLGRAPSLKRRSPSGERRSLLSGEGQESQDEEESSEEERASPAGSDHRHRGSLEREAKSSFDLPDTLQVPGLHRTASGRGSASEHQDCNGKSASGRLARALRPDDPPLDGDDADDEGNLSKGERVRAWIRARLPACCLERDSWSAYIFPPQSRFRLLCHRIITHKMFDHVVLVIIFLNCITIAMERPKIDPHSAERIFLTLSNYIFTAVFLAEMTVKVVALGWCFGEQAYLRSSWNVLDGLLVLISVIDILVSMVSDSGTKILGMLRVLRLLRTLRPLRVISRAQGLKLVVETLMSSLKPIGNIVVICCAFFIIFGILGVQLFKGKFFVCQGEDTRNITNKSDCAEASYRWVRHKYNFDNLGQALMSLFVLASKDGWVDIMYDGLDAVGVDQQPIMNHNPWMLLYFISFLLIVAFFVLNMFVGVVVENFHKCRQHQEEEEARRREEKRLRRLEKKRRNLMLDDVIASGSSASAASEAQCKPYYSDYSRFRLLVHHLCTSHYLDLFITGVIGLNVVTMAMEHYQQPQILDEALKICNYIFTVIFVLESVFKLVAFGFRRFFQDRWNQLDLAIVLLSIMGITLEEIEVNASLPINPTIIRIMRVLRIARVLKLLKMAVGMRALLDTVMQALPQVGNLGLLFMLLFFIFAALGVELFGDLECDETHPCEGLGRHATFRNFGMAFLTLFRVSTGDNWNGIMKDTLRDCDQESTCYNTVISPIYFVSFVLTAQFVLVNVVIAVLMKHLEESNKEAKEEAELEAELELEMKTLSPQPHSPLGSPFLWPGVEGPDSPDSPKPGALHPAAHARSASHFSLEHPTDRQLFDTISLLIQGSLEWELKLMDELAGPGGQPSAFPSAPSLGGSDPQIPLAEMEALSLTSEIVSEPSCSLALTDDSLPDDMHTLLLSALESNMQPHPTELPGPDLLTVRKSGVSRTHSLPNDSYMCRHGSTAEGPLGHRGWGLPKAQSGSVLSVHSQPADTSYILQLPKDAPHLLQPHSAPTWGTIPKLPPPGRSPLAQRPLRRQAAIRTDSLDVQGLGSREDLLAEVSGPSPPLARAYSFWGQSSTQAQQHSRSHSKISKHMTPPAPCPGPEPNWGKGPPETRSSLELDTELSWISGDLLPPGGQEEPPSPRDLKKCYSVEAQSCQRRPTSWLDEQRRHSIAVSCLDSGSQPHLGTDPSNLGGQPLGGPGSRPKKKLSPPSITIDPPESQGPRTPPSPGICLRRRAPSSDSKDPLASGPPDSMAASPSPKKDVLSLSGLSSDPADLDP

## COc1ccccc1-c1no[n+]([O-])c1CN1CCN(C(c2ccc(F)cc2)c2ccc(F)cc2)CC1 [10e, 3-((4-(bis(4-fluorophenyl)methyl)piperazin-1-yl)methyl)-4-(2-methoxyphenyl)-1,2,5-oxadiazole 2-oxide]
Cav3.1
  inhibition at 10 µM: 93.3 ± 2.78%
Cav3.3
  inhibition at 10 µM: 88.4 ± 4.08%
